Results published in the supplement of paper PMC11061612.

Columns and labels:
[1] = test system: HOS (Osteosarcoma); assay: Bliss excess, mean over the matrix (fraction); higher = more synergy
Summary of the method: (§1)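 Bliss excess equals the observed combination effect minus the expected value EA + EB − EA·EB, where EA and EB are the effects of each agent alone. Combination Emax is the second-highest inhibition within the matrix. Inhibition was scaled from CellTiter-Glo 2.0 luminescence, with 0 set by vehicle wells and 1 by blank wells, after 72 hours of two-drug dosing of cells plated in 1536-well plates.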

[2] = test system: NCI-H82 (Small Cell Lung Carcinoma); assay: as above
Summary of the method: as §1

[3] = test system: RO82-W-1 (Thyroid Gland Carcinoma); assay: as above
Summary of the method: as §1

[4] = test system: NCI-H2085 (Non-Small Cell Lung Carcinoma); assay: as above
Summary of the method: as §1

[5] = test system: HOS (Osteosarcoma); assay: combination Emax (second highest fraction inhibited in the dose matrix, 72 h); higher = more inhibition; extreme values may be limits of the assay
Summary of the method: as §1

[6] = test system: CAL-148 (Breast Carcinoma); assay: as above
Summary of the method: as §1

[7] = test system: HT-1376 (Bladder Carcinoma); assay: as above
Summary of the method: as §1

[8] = test system: HO-1-N-1 (Oral Cavity Carcinoma); assay: as above
Summary of the method: as §1

[9] = test system: Hs-578-T (Breast Carcinoma); assay: as above
Summary of the method: as §1

[10] = test system: ME-1 (Acute Myeloid Leukemia); assay: as above
Summary of the method: as §1

[11] = test system: NB10 (Neuroblastoma); assay: as above
Summary of the method: as §1

[12] = test system: Ramos-2G6-4C10 (Burkitt's Lymphoma); assay: as above
Summary of the method: as §1

[13] = test system: CaR-1 (Colorectal Carcinoma); assay: as above
Summary of the method: as §1

[14] = test system: RO82-W-1 (Thyroid Gland Carcinoma); assay: as above
Summary of the method: as §1

[15] = test system: CCRF-CEM (T-Lymphoblastic Leukemia); assay: as above
Summary of the method: as §1

[16] = test system: KELLY (Neuroblastoma); assay: as above
Summary of the method: as §1

[17] = test system: KURAMOCHI (Ovarian Carcinoma); assay: as above
Summary of the method: as §1

[18] = test system: T98G (Glioblastoma); assay: as above
Summary of the method: as §1

[19] = test system: LS-180 (Colorectal Carcinoma); assay: as above
Summary of the method: as §1

[20] = test system: NCI-H2085 (Non-Small Cell Lung Carcinoma); assay: as above
Summary of the method: as §1

Row | SMILES | Bliss excess [1] | Bliss excess [2] | Bliss excess [3] | Bliss excess [4] | combination Emax [5] | combination Emax [6] | combination Emax [7] | combination Emax [8] | combination Emax [9] | combination Emax [10] | combination Emax [11] | combination Emax [12] | combination Emax [13] | combination Emax [14] | combination Emax [15] | combination Emax [16] | combination Emax [17] | combination Emax [18] | combination Emax [19] | combination Emax [20]
1 | CN(CCO)CC[C@H](CSc1ccccc1)Nc1ccc(S(=O)(=O)NC(=O)c2ccc(N3CCC([C@@H](O)c4ccccc4-c4ccc(Cl)cc4)CC3)cc2)cc1S(=O)(=O)C(F)(F)F [AZD4320] + Nc1ccn([C@@H]2O[C@H](CO)[C@@H](O)C2(F)F)c(=O)n1 [Gemcitabine] (first compound max 1 µM, 7x7, partner max 0.3 µM) | 0.0045 | 0.016 | -0.0237 | 0.0228 | 0.829 | 0.974 | 0.236 | 1 | 0.876 | 1 | 0.858 | 0.554 | 0.708 | 0.572 | 1 | 0.999 | 0.559 | 0.861 | 0.66 | 0.562
2 | Cc1c2c(nn1C)CSCc1cc(n(C)n1)CSc1cc(c3ccccc3c1)OCCCc1c(C(=O)O)n(C)c3c-2c(Cl)ccc13 [AZD5991] + CC(=O)O[C@H]1C(=O)[C@@]2(C)[C@H]([C@H](OC(=O)c3ccccc3)[C@]3(O)C[C@H](OC(=O)[C@H](O)[C@@H](NC(=O)c4ccccc4)c4ccccc4)C(C)=C1C3(C)C)[C@]1(OC(C)=O)CO[C@@H]1C[C@@H]2O [Paclitaxel] (first compound max 1 µM, 7x7, partner max 3 µM) | 0.103 | -0.0392 | -0.023 | 0.0904 | 0.964 | 0.81 | 0.0587 | 1 | 0.988 | 0.715 | 0.915 | 1 | 0.741 | 0.401 | 0.992 | 1 | 0.539 | 0.883 | 0.822 | 0.743
3 | Cc1c2c(nn1C)CSCc1cc(n(C)n1)CSc1cc(c3ccccc3c1)OCCCc1c(C(=O)O)n(C)c3c-2c(Cl)ccc13 [AZD5991] + CS(=O)(=O)CCNCc1ccc(-c2ccc3ncnc(Nc4ccc(OCc5cccc(F)c5)c(Cl)c4)c3c2)o1 [Lapatinib] (first compound max 1 µM, 7x7, partner max 10 µM) | -0.0365 | -0.0161 | -0.0357 | 0.0494 | 0.303 | 0.492 | 0.33 | 0.962 | 0.833 | 0.646 | 0.177 | 0.996 | 0.432 | 0.141 | 0.594 | 1 | 0.674 | 0.412 | 0.482 | 0.47
4 | Cc1c2c(nn1C)CSCc1cc(n(C)n1)CSc1cc(c3ccccc3c1)OCCCc1c(C(=O)O)n(C)c3c-2c(Cl)ccc13 [AZD5991] + Nc1ccn([C@@H]2O[C@H](CO)[C@@H](O)C2(F)F)c(=O)n1 [Gemcitabine] (first compound max 1 µM, 7x7, partner max 0.3 µM) | 0.0054 | 0.003 | -0.0453 | -0.021 | 0.823 | 0.929 | 0.215 | 0.994 | 0.663 | 0.676 | 0.778 | 0.994 | 0.629 | 0.0885 | 0.987 | 1 | 0.491 | 0.5 | 0.779 | 0.203
5 | C[C@@H]1COCCN1c1cc(C2([S@](C)(=N)=O)CC2)nc(-c2ccnc3[nH]ccc23)n1 [AZD6738] + C1CC(C1)(C(=O)[O-])C(=O)[O-].N.N.[Pt+2] [Carboplatin] (first compound max 10 µM, 7x7, partner max 10 µM) | -0.0209 | -0.117 | -0.0333 | -0.067 | 0.668 | 0.818 | 0.454 | 0.779 | 0.69 | 0.348 | 0.689 | 0.88 | 0.385 | 0.151 | 0.977 | 0.944 | 0.636 | 0.886 | 0.7 | 0.381
6 | Cc1cc2ncnn2cc1Nc1ncc2c(n1)n(C1CCOCC1)c(=O)n2C [AZD7648] + COc1cc([C@@H]2c3cc4c(cc3[C@@H](O[C@@H]3O[C@@H]5CO[C@@H](C)O[C@H]5[C@H](O)[C@H]3O)[C@H]3COC(=O)[C@H]23)OCO4)cc(OC)c1O [Etoposide] (first compound max 10 µM, 7x7, partner max 10 µM) | 0.0772 | 0.0583 | 0.0049 | 0.0734 | 0.879 | 1 | 0.515 | 0.987 | 0.662 | 0.272 | 0.872 | 0.963 | 0.661 | 0.288 | 1 | 0.793 | 0.474 | 0.741 | 0.729 | 0.434
